Data as given in patent US20230095701A1, “Use of Albiflorin in Treatment of Coronavirus Pneumonia” (priority 2020, published 2023).

What was measured:
[1] = tested on: intestinal flora metabolism; test: Targeted metabolomics (LC-MS/MS, VIP analysis) of feces of chronic stress (CUMS) depression model rats; conditions: 7 mg/kg/d intragastric, 7 days, compared with the depression group
Experimental: 32 healthy male SD rats, weighing 180-220 g, are randomly divided into a blank control group (Control), a model group (CUMS), a fluoxetine group (FLX), and an albiflorin group (Albiflorin), with 8 in each group.
Except for the blank control group, all groups receive randomly designed stress stimulation, and are then administrated intragastrically with fluoxetine (10 mg/kg/d) and albiflorin (7 mg/kg/d) for 7 consecutive days in terms of 1.0 mL/100 g body weight after 29 days of stress stimulation, while the corresponding stress stimulation is continued in the course of administration. All drugs are prepared into solutions or suspensions with physiological saline before use, and dissolved by ultrasonic waves.
After 7 days of administration, the administration ends, and 24 hours later, behavioral tests are performed. After the tests, the animals are anesthetized and sacrificed. The plasma, hippocampal tissues, and feces of the animals are collected separately, and preserved for later use by using appropriate methods according to the experimental requirements. […]
The metabolite extract is taken, dissolved in 100 μl mobile phase, and the main metabolites in the sample are determined by LC-MS/MS (Shimadzu LC-20AD-Qtrap 5500 tandem mass spectrometer (SCIEX, USA)). […]
The obtained chromatographic peak information (Wiff file) is imported into Multiquant 3.0 (SCIEX, USA), and the obtained chromatographic peaks are area-integrated and checked manually. […] The analyzed data is imported into Metaboanalyst for multivariate analysis (PLS-DA, OPLS-DA and VIP analysis), metabolic pathways analysis and correlation analysis.

SphK2 = SphK2 in hippocampus of chronic stress rats, Western Blot; design: SphK2 in the hippocampus (in words): dose or concentration left out as unconfirmed; conditions: for SphK2: hippocampus of chronic stress rats, blank control 1.0, model 1.8
erythropoietin EPO = test: Hypoxia tolerance experiment; type: in vivo; conditions: hypoxic state of the body
intestinal flora = test: Intestinal flora function and structure in CUMS rats (metabolomics, 16sDNA high-throughput metagenomic sequencing); conditions: 7 days
SphK1 = SphK1 in hippocampus of chronic stress rats, Western Blot; design: SphK1 in the hippocampus (in words): dose or concentration left out as unconfirmed; conditions: for SphK1: hippocampus of chronic stress rats, blank control 1.0, model 1.1
IL-6 = IL-6 content in plasma of acute stress model mice (ELISA); type: in vivo, ICR mice
cPLA2 = cPLA2 in hippocampus of chronic unpredictable mild stress (CUMS) rats; conditions: 7 days, 7 mg/kg, FIG. 10
IDO1 = IDO1 in hippocampus of chronic stress rats, Western Blot; design: secretion of IDO1 in the hippocampus (in words): dose or concentration left out as unconfirmed; conditions: 7 days; for IDO1: hippocampus of chronic stress rats, blank control 1.0, model 1.0
[2] = compared with the depression group, VIP analysis, FIG. 15

## C[C@]12C[C@@H](O)[C@@H]3C[C@@]1(O[C@@H]1O[C@H](CO)[C@@H](O)[C@H](O)[C@H]1O)[C@@]3(COC(=O)c1ccccc1)C(=O)O2 [Albiflorin]
[1]; CUMS rats, VIP analysis, FIG. 6
  overall metabolism of intestinal flora: significantly improved
[1]; feces of CUMS rats
  amino acid and vitamin content: increase
  bile acid content: increase
SphK2; CUMS rats, 7 days, P<0.01
  SphK2 in the hippocampus (in words): significantly decreased
SphK2; 3.5 mg/kg, 7 days
  SphK2: 2.2 ± 0.016
SphK2; 7 mg/kg, 7 days
  SphK2: 1.6 ± 0.010
SphK2; 14 mg/kg, 7 days
  SphK2: 2.1 ± 0.015
Erythropoietin EPO
  level of erythropoietin EPO: increase
Intestinal flora; 7 mg/kg/d, P>0.05, FIG. 14
  flora structure compared with the blank control group (cluster analysis): without any statistical difference
Intestinal flora; 7 mg/kg/d, compared with the stress rat model group, FIG. 14
  content of beneficial bacteria Firmicutes, especially lactic acid bacteria: significant increase
Intestinal flora; [2]
  content of bile acids and content of amino acids and vitamins: increase
  overall metabolism of intestinal flora: significantly improved
SphK1; CUMS rats, 7 days, P<0.01
  SphK1 in the hippocampus (in words): significantly decreased
SphK1; 3.5 mg/kg, 7 days
  SphK1: 1.2 ± 0.009
SphK1; 7 mg/kg, 7 days
  SphK1: 0.7 ± 0.004
SphK1; 14 mg/kg, 7 days
  SphK1: 0.5 ± 0.001
IL-6; 8 mg/kg intragastric, P<0.01, FIG. 8
  secretion of IL-6: most significant inhibitory effect
IL-6; low dose range, intragastric, 2 days, FIG. 8
  secretion of IL-6: certain inhibitory effect
IL-6; with the increase of the administration dose (up to 128 mg/kg), FIG. 8
  secretion of IL-6: secretion of IL-6 is promoted obviously
cPLA2
  increase of cPLA2 in the hippocampus: inhibit the increase of cPLA2
IDO1; CUMS rats, P<0.01
  secretion of IDO1 in the hippocampus (in words): significantly inhibited
IDO1; 7 mg/kg
  IDO1: 0.8 ± 0.007
IDO1; 14 mg/kg
  IDO1: 0.7 ± 0.007

## CNCCC(Oc1ccc(C(F)(F)F)cc1)c1ccccc1 (stereo not drawn) [Fluoxetine, fluoxetine, reference compound]
SphK2; fluoxetine group
  SphK2: 2.1 ± 0.016
SphK1; fluoxetine group
  SphK1: 1.5 ± 0.009

## C[C@@]12C[C@@]3(O)O[C@@H](O1)[C@]1(COC(=O)c4ccccc4)[C@H]3C[C@@]12O[C@@H]1O[C@H](CO)[C@@H](O)[C@H](O)[C@H]1O [Paeoniflorin, reference compound]
IL-6; 4 mg/kg and 8 mg/kg intragastric, P<0.05, FIG. 7
  secretion of IL-6 in the blood: most significant inhibitory effect
IL-6; dose range 4, 8, 16, 32, 64 and 128 mg/kg intragastric, 2 days, FIG. 7
  secretion of IL-6 in the blood: certain inhibitory effect
